Read-outs that look alike come from different tables or passages of the source.
How the values were obtained:
[1] = target: T1, human μ opioid receptor (Homo sapiens, UniProt P35372); assay: biochemical
T1 construct: expressed in transfected cells; membranes used
Procedure: Other functional assays could also be used based on cAMP or other downstream end-points following receptor activation; however the GTPγS is the preferred approach. […] Since the AAnAI is based on Cmax it can be calculated for any route of administration for the combination.
These values were determined using the GTPγS functional assay.
The [^35S]GTPγS assay measures the functional properties of a compound by quantifying the level of G-protein activation following agonist binding in studies using stably transfected cells, and is considered to be a measure of the efficacy of a compound. Membranes from CHO (Chinese Hamster Ovary) cells that stably expressed the cloned human μ opioid receptor were used in the experiments. […] The assay buffer consisted of 50 mM Tris-HCl, pH 7.4, 3 mM MgCl2, 0.2 mM EGTA, 3 μM GDP, and 100 mM NaCl. The final concentration of [35S]GTPγS was 0.080 nM. Nonspecific binding was measured by inclusion of 10 μM GTPγS. Binding was initiated by the addition of the membranes. After an incubation of 60 min at 30° C., the samples were filtered through Schleicher & Schuell No. 32 glass fiber filters. The filters were washed three times with cold 50 mM Tris-HCl, pH 7.5, and were counted in 2 mL of Ecoscint scintillation fluid.

[2] = tested on: NAc-sh dopamine and 5-HIAA; assay: NAc-sh dopamine and 5-HIAA in WKY rats undergoing forced swim test; assay type: in vivo, rat; conditions: highest dose of Compound 1, buprenorphine 0.1 mg/kg, WKY rats in FST
Procedure: FIG. 6: The effect of Compound-1 on dopamine efflux in WKY rats undergoing forced swim test after treatment with Buprenorphine (0.1 mg/kg).
FIG. 7: The efflux of Compound-1 on 5-Hydroxyindoleacetic acid (5-HIAA) release in WKY rats undergoing the forced swim test after treatment with Buprenorphine (0.1 mg/kg).

[3] = Plasma Cmax in patients (LC/MS/MS); conditions: human, 8 mg
Procedure: Samples were analyzed using a 50 μL aliquot volume and a protein-precipitation extraction procedure followed by liquid chromatography/tandem mass spectrometry (LC/MS/MS).
Samples were analyzed using a 400 μL aliquot volume and a solid-phase extraction procedure followed by liquid chromatography/tandem mass spectrometry (LC/MS/MS).

[4] = Rat plasma Cmax of antagonists given with buprenorphine; conditions: male, sc
Procedure: Male rats weighing between 300-400 grams, the same weight range used in the microdialysis studies, were used for these PK experiments. […] Sample of blood were collected at 5, 15, 30, 60 and 120 minutes post dosing. […] The collection tubes were inverted 10-15 times and then held on ice prior to centrifugation.

[5] = tested on: dopamine efflux in the Nucleus Accumbens shell (NAc-sh); assay: In vivo microdialysis, buprenorphine-induced dopamine efflux; conditions: antagonist plus buprenorphine 0.1 mg/kg SC
Procedure: Experiments were conducted in rats to assess the ability of opioid antagonists to modulate buprenorphine-induced dopamine efflux in the Nucleus Accumbens shell (NAc-sh) region of the mesolimbic region of the brain. Male rats weighing 300-400 grams were used for all studies. To measure the efflux of dopamine in the NAc-sh an in vivo microdialysis method was utilized in free-moving rats. This method allows the sampling of extracellular cerebrospinal fluid (CSF) from specific brain regions of interest and measurement of neurotransmitter concentrations following the analysis of sampled dialysate with HPLC-EC.
Each rat underwent surgical implantation of microdialysis guide cannula (CMA 12, CMA Microdialysis) to facilitate the insertion of the microdialysis probe later on. Rats were anesthetized with a mixture of ketamine/xylazine (80/6 mg/kg IP) and placed in a stereotaxic apparatus. […] Guide cannula were capped with dummy probes until microdialysis probe insertion. On the day prior to experimentation (3-4 days post-surgery), animals were weighed to determine appropriate dose for test articles. A microdialysis probe (CMA 12, 2 mm membrane, CMA microdialysis) was then inserted through the guide cannula. […] Each sample was analyzed via HPLC-EC to determine neurotransmitter concentration of dopamine based upon a six-point standard curve.

[6] = 50 mg dose of naltrexone; cited from earlier work

T1 sequence (P35372 whole entry): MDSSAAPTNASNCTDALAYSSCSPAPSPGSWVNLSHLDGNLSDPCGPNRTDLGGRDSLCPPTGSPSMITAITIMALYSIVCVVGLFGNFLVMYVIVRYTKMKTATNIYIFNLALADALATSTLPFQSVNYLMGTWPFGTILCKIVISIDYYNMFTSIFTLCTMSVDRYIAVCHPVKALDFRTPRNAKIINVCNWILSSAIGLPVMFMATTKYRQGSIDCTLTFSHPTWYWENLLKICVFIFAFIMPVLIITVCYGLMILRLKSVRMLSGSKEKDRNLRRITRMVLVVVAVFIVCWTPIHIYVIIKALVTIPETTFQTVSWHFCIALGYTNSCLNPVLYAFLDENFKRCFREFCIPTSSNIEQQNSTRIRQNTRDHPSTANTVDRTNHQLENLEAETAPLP

SMILES | IC50 [1] | Imax [1] | Buprenorphine effect on 5-HIAA [2] | Buprenorphine effect on NAc-sh dopamine [2] | Cmax [3] | Cmax ([3]; other: sublingual) | Cmax ([4]; 0.3 mg/kg) | Cmax ([4]; 1 mg/kg) | Cmax ([4]; 0.03 mg/kg) | Cmax ([4]; 0.1 mg/kg) | NAc-sh dopamine efflux induced by buprenorphine [5] | Cmax [6]
NC(=O)c1ccc2c(c1O)[C@]13CCN(CC4CC4)[C@H](C2)[C@]1(O)CCC(=O)C3 [Compound-1] | 900 pM | >95% | complete attenuation of buprenorphine effects | complete attenuation of buprenorphine effects | 25.8 ng/mL | 69.6 nM | 11.8 ng/mL | 75.5 ng/mL |  |  |  | 
C=C1CC[C@@]2(O)[C@H]3Cc4ccc(C(N)=O)c(O)c4[C@@]2(CCN3CC2CC2)C1 [Compound-10] | 230 pM |  |  |  |  |  | 29.5 ng/mL |  | 2.24 ng/mL | 18.1 ng/mL |  | 
C=C1CC[C@@]2(O)[C@H]3Cc4ccc(O)c5c4[C@@]2(CCN3CC2CC2)[C@H]1O5 [Nalmefene, nalmefene] |  |  |  |  |  |  | 25.6 ng/mL | 162 ng/mL |  | 14.1 ng/mL | more potent | 
O=C1CC[C@@]2(O)[C@H]3Cc4ccc(O)c5c4[C@@]2(CCN3CC2CC2)[C@H]1O5 [Naltrexone, naltrexone] |  |  |  |  |  |  | 76.9 ng/mL | 169 ng/mL |  | 19.3 ng/mL |  | approximately 10 ng/mL

— patent US10314838B2, “Compositions of buprenorphine and μ antagonists” (priority 2011, dated 2019)
